This is an account of results in EP4670733A1, “METHODS FOR PREPARING VIRAL PROTEINS AND USES THEREOF” (priority 2024, dated 2025).

Data set [1] relates to B/Phuket/3073/2013 virus strain. The arrangement: species or system influenza virus.
Data set [2] in a line: Endotoxin content, limulus amoebocyte lysate (LAL) assay. The conditions noted are these: drug substance (Sample E6).
In data set [3] the test system is B/Phuket/3073/2013 virus strain. In words: HA content by SRID. Also noted: species or system influenza virus.
For data set [4], the system named is NA enzyme. In words: NA enzymatic activity, MUNANA assay. The data set is classed as biochemical, influenza virus. Conditions: drug substance (Sample E6).
Data set [5] concerns B/Phuket/3073/2013 virus strain. The data set can be described thus: Splitting efficiency by ultracentrifugation in sucrose gradient. The arrangement: species or system influenza virus.

C11-15-secondary alcohol ethoxylates: the Residual infectious virus entry in data set [1] is on record as “No Residual infectious virus”. The substance also returned an Endotoxin content in data set [2] of less than 0.5 EU/mL. The “HA content in µg/mL (SRID)” value in data set [3] is on record as 241.24 µg/mL. Also, in data set [4], the “NA enzymatic activity: NA activity” value is listed as 228 µmol/mL/h and the “NA enzymatic activity: Specific activity” value is given as 1915 µmol/mg/h.
Turning to Triton X-100, the Residual infectious virus result in data set [1] is “No Residual infectious virus”. For the same substance, the “Splitting efficiency (ultracentrifugation in sucrose gradient)” value in data set [5] was “Conform* (Max total protein by OD280 at 40%sucrose for whole virus and lower than 30%sucrose for split virus.)”. The same substance showed an Endotoxin content in data set [2] of less than 0.5 EU/mL. The “HA content in µg/mL (SRID)” value in data set [3] was 269.97 µg/mL. Also, the “NA enzymatic activity: NA activity” value in data set [4] is given as 155 µmol/mL/h.
